Reference: ChEMBL document CHEMBL3112428, “Biological evaluation of diazene derivatives as anti-tubercular compounds” (Eur J Med Chem, 2014)
The source made the active and inactive calls. No cut-off for these calls is given here.

Tests used:
Format in all cases: functional, organism-based
[1] = system: Mycobacterium tuberculosis; assay: Antituberculosis activity against multidrug-resistant Mycobacterium tuberculosis LAM1 assessed as growth inhibition at 1 to 5 ug/ml measured everyday by BACTEC assay
[2] = system: Mycobacterium tuberculosis; assay: Antituberculosis activity against multidrug-resistant Mycobacterium tuberculosis LAM1 assessed as growth inhibition at 0.1 ug/ml measured everyday by BACTEC assay
[3] = system: Mycobacterium tuberculosis; assay: Antituberculosis activity against multidrug-resistant Mycobacterium tuberculosis LAM1 assessed as growth inhibition at <= 10 ug/ml measured everyday by BACTEC assay

O=C(/N=N/c1ccc(C(F)(F)F)cc1)Nc1ccccc1
growth inhibition (GI) [1]: Active

NNC(=O)c1ccncc1 [ISONIAZID]
growth inhibition (GI) [2]: inactive

CCOC(=O)/N=N/C(=O)Nc1ccc(C)cc1
growth inhibition (GI) [3]: inactive
